Source: patent publication US20220175798A1, “COMPOSITIONS COMPRISING OXYGENATED CHOLESTEROL SULFATE AND AT LEAST ONE OF POLYALKYLENE GLYCOL, CARBOXYMETHYL CELLULOSE AND POLYOXYLGLYCERIDE” (Durect Corporation, priority 2016, published 2022)

What was measured:
[1] = system: non-alcoholic steatohepatitis (NASH); experiment: Accelerated mouse model of NASH (STZ + HFD), Part II; format: in vivo, C57BL/6J mice; conditions: 50 mg/kg daily oral
Description: (§1) The subjects for the study were 36 C57BL/6J male mice. Mice were given 200 μg streptozotocin (STZ) at 2 days after birth and fed high fat diet (HFD) starting at four weeks of age until the remainder of the study (13 weeks of age). This intervention early in their lives induces accelerated progression of non-alcoholic steatohepatitis (NASH) and has been thoroughly characterized.
The Vehicle was a solution of 0.5% (w/v) CMC and 0.05% (v/v) Tween-80 in water. Powdered 25HC3 S was constituted into the Vehicle solution to result in drug concentration of 10 mg/mL. The suspensions were homogenized for approximately 5 minutes (with 10 second breaks every 30-40 seconds) and swirled before dosing to maintain homogeneity. The formulated test article was prepared weekly and kept at room temperature.
Mice were divided into treatment groups (N=10/group) and dosed daily by oral gavage with water (control), Vehicle or 50 mg/kg 25HC3 S starting from Week 9 to Week 13 (28 days treatment).

[2] = Single SC injection PK study in Beagle dogs; format: in vivo; conditions: single SC dose 25 mg/kg
Description: The subjects for the study were 5 male Beagle dogs (4-7 years of age; 8-11 kg). […] All animals were in healthy condition and admitted to the study.
The Vehicle was a solution of 3% (w/v) polyethylene glycol 3350, 0.3% (w/v) polysorbate 80, 0.7% (v/v) sodium chloride, 0.15% (w/v) L-methionine, 10 mM sodium phosphate buffer at pH 7.4 in water. 25HC3 S was mixed into the Vehicle solution to result in a drug concentration of 25 mg/mL. […] The formulated test article was used within 24 hours of constitution.
Each dog received a single subcutaneous injection. The dose level of 25 mg/kg was administered in a dose volume of 1 mL/kg. Whole blood samples were collected via the jugular vein at pre-dose, 0.5, 1, 2, 4, 8, 12, 24, and 32 hours (h) post dose. Blood samples were placed into tubes containing K2EDTA. The blood was gently mixed to assure distribution of the anti-coagulant and the resulting plasma samples underwent analyses to quantify 25HC3S levels. […] Assessments included, but were not limited to, evidence of pain on injection, assessment of activity, posture, respiration, emesis, seizure, hydration status, injection site assessment.

[3] = Stability and impurity profile of 25HC3S suspension at room temperature by HPLC; format: physicochemical
Description: (§2) The HPLC technique involved reverse phase HPLC for measuring the concentration of 25HC3 S in the solubility samples.
(§3) Weigh 80 mg of 25HC3S (Lot #B, Passed through 20 mesh screen and Jet-milled, 3rd pass) into a 10 mL vial. Add to the vial, 8 mL of Vehicle PEG 3350 (with 0.15% L-Methionine and 0.9% NaCl). […] A total of 9 samples were dispensed using 1 mL BD syringes attached to 20G1″ or 25G⅝″ Terumo UTW needles for homogeneity analysis by HPLC (Study #14) and stability study (Study #17).

[4] = Homogeneity and content uniformity of 25HC3S suspension by HPLC; format: physicochemical
Description: as §2, §3
Weigh 50 and 80 mg of 25HC3S into 2 and 10 mL vials, respectively. Add to the vial, 2 mL and 8 mL of Vehicle PEG 3350 with L-Methionine. […] The vial was inverted 10 times prior to dispensing 0.2 or 0.9 mL into volumetric flasks for methanol dilution for HPLC analysis (total 8 and 7 samples, respectively for HPLC analysis for potency and stability (Study #15).
Weighed approximately 125 mg each of 25HC3S (Lot #C, jet milled and passed through a 20 mesh screen) into a 10 mL vial. Added to vial, 5 mL of Vehicle PEG 3350 without L-Methionine. The vial was placed horizontally in a flat bed shaker, shaken at 100 rpm for up 45 minutes (Mixing Method 4). There were some small wet lumps stuck to the wall and bottom of the glass vial.
Weigh 87 mg of 25HC3S (Lot #C, Jet milled and then pass 20 mesh screen) into a 5-mL vial. Add to the vial 3 mL Vehicle PEG 3350 (without L-methionine and with 0.75% NaCl). […] Weigh another approximately and accurately 90 mg each of 25HC3S (Lot #D and Lot #B, micronized, one pass) into 3 separate 10 mL vials with 3 mL of Vehicle PEG 3350. The vials were placed in a flat bed shaker at 200 rpm for 45 minutes (Mixing Method 4). […] A second set of samples was prepared likewise from the same 3 vials except using 1 mL BD syringe attached to a 27G½″ needle. The homogeneity was determined (Study #19).

[5] = system: non-alcoholic steatohepatitis (NASH); experiment: Accelerated mouse model of NASH (STZ + HFD), Part I; format: in vivo, C57BL/6J mice; conditions: vs vehicle
Description: as §1, with “30” for “36”, “given a” for “given”, “ug” for “μg”, “(9” for “(13”, “highly” for “thoroughly”
The Vehicle was a solution of 0.5% (w/v) CMC and 0.05% (v/v) Tween-80 in water. Powdered 25HC3 S was constituted into the vehicle solution to result in drug concentrations of 5 and 10 mg/mL. The suspensions were homogenized for approximately 5 minutes being combined, with 10 second breaks every 30-40 seconds and swirled before dosing to maintain homogeneity. The formulated test article was prepared weekly and kept at room temperature.
Mice were divided into treatment groups (N=10/group) and dosed daily by oral gavage with vehicle, 10 mg/kg or 50 mg/kg 25HC3S starting from Week 5 to Week 9 (28 days treatment).

[6] = Stress study of suspension formulation with hydrogen peroxide; format: physicochemical; conditions: stress study of 25HC3S suspension formulation with hydrogen peroxide
Source text: L-Methionine was initially added as an antioxidant. […] Therefore, L-Methionine was removed from the preferred suspension formulation. 25HC3S in Vehicle PEG 3350 (without L-Methionine) was used for further syringeability study (Studies #12 and 13).

[7] = Week 9 to 13, vs Vehicle, p<0.05
[8] = 10 mg/kg daily oral gavage 28 days

With C[C@H](CCCC(C)(C)O)[C@H]1CC[C@H]2[C@@H]3CC=C4C[C@@H](OS(=O)(=O)[O-])CC[C@]4(C)[C@H]3CC[C@]12C.[Na+] [Formulation 25HC3S, 5-cholesten-3, 25-diol, 3-sulfate] the “NAS (NAFLD activity score)” value ([1]; Week 9 to 13, vs Vehicle) was “trend of reduction”, the hepatocyte ballooning [1, 7] was “significant reduction” and the “percent area of fibrosis (Sirius red-positive area)” value [1, 7] was “significantly decreased”. The extent of fibrosis ([1]; compared to baseline Week 9 mice) was “trended lower”, the clinical signs [2] was “no observable clinical signs” and the “mean time to maximum plasma drug concentration” value ([2]; PEG 3350 suspension 25 mg/mL) was 23.2 h. For the same compound, the “mean concentration at 32 h” value ([2]; plasma) was 157.6 ng/mL, the odor after storage ([3]; 25HC3S in Vehicle PEG 3350 with L-Methionine, room temperature for a few months) was “produced a sulfur-like odor” and the “% peak area for 25HC3S” value ([3]; after 2 weeks at RT, 25 mg/mL in Vehicle PEG 3350 (with 0.15% L-Methionine), 25HC3S plus two impurities as 100%, n=2) was “approximately 99.17%”. For the same compound, the drug potency ([3]; after 2 weeks at RT, time 0 concentration as 100%, n=2, 25 mg/mL in Vehicle PEG 3350 (with 0.15% L-Methionine)) was 103.7%, the “25HC3S by peak area normalization” value ([3]; final suspension formulation 25 mg/mL, room temperature up to 14 days) was 99.172% and the “stable at ambient room temperature” value ([3]; suspension 25 mg/mL in Vehicle PEG 3350 (with 0.15% L-Methionine)) was “at least 2 weeks”. The homogeneity ([4]; 10 mg/mL in Vehicle PEG 3350 (with 0.15% L-Methionine), n=7, 0.9 mL each, Study #15) was 100.5-103.1 % LS, the homogeneity ([4]; 10 mg/mL suspension in Vehicle PEG 3350 (0.15% L-Methionine, 0.9% NaCl), Lot #B jet-milled 3rd pass, n=9, Study #14) was 94.3-98.1 % LS and the homogeneity ([4]; 25 mg/mL in Vehicle PEG 3350 (with 0.15% L-Methionine), n=8, 0.2 mL each, Study #15) was 96.2-109.4 % LS. The “homogeneity (and content uniformity)” value ([4]; final improved formulation 25 mg/mL (Study #19)) was 89.3-105.9 % label strength, the “H&E-stained liver sections” value [5, 8] was “No obvious changes” and the “percent area of fibrosis” value [5, 8] was “no significant difference”. For the same compound, the “percent area of fibrosis (Sirius red-positive area)” value ([5]; 50 mg/kg daily oral gavage 28 days, p=0.0061) was “significantly decreased”, the “NAS (NAFLD activity score)” value ([5]; 50 mg/kg daily oral gavage 28 days, p=0.0088) was “significant reduction” and the oxidative degradation [6] was “oxidative degradation did not occur”.
